Reference: US7968582B2, “5(S)-substituted pyrazoline compounds, their preparation and use as medicaments” (Laborotorios Del Dr. Esteve, S.A., priority 2005, dated 2011)

Experiments:
[1] = biological target: T1, recombinant human cannabinoid 1 receptor (CB1) (Homo sapiens, UniProt P21554); assay: In vitro determination of antagonism to CB1-receptor, [35S]GTPγS binding assay; format: biochemical; conditions: compound 1 μM with agonist WIN 55,212-2 (3 nM to 3 μM); 100% = difference between maximal WIN 55,212-2 effect alone and plus Rimonabant (1 μM); CHO-hCB1 membranes
T1 construct: expressed in transfected cells; membrane preparation
Procedure: VI. In vitro Determination of Antagonism to CB1-Receptor
In order to obtain cells, culture flasks were washed twice with phosphate buffered saline and scraped. Then, cells were collected by centrifugation (200×g, 10 min) and stored dry at −80° C.
[^35S]GTPγS Binding Assay:
The reaction was performed in 96-well plates. […] Filter plates were dried and 30 μl of scintillation liquid was added, Radioactivity was determined using a Wallac Microbeta Trilux. Each experiment was performed at least in duplicate.
The average of basal [^35S]GTPγS binding was subtracted from all binding data.

[2] = Chronic administration to animals made obese by a simplified cafeteria diet; format: in vivo, rats
[3] = Effect of continued administration on body weight in rats; format: in vivo
Procedure: V. Determination of the Effect of Continued Administration of the Inventive Compounds on Body Weight in Rats
The weight of the animals was measured for 36 days, and the data grouped into 3 periods for analysis: Period 1, days 1-8 (period for adaptation of the animals to the environmental conditions: one week without treatment plus first day of treatment); Period 2. days 9-22 (treatment period: two weeks); Period 3, days 23-36 (escape treatment period: two weeks). The administration of the drugs started on day 8, immediately after the animal was weighted, and finished on day 21. The treatment period ranges between one day after first administration and one day after last administration. The drugs were administered i.p. once daily. For comparative purposes, absolute weights were transformed into relative percentages (each weight was divided by that of day 8 and multiplied by 100). […] All results are expressed as mean±S.E.M.
The dependence of body-weight (expressed as a percentage relative to day 8) on time (number of lays after inclusion in the study) and treatment was assessed by a two-way (time, treatment) analysis of variance (ANOVA) with repeated measures on the time factor. […] The differences between pairs of curves (treatments) were analyzed using appropriate contrasts within the ANOVA test. […]

T1 sequence (P21554 whole entry): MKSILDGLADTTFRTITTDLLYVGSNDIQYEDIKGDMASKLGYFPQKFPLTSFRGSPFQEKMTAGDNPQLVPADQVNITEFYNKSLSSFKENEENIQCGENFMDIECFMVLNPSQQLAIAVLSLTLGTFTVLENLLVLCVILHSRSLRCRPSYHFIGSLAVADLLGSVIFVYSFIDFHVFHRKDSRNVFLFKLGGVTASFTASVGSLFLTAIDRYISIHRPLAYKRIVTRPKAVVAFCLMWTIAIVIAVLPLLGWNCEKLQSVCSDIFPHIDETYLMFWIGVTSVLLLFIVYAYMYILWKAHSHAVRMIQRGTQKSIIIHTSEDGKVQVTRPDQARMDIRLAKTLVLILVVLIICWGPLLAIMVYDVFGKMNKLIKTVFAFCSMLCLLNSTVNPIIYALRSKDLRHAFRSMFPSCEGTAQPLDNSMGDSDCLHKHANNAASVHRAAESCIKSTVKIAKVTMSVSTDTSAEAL

Q: Which results are given for O=C(NN1CCCCC1)C1=NN(c2ccc(Cl)cc2Cl)[C@H](c2ccc(Cl)cc2)C1 [A, (S)-N-piperidinyl-5-(4-chlorophenyl)-1-(2,4-dichlorophenyl)-4,5-dihydro-1H-pyrazole-3-carboxamide]?
A: Antagonism [%] [1]: 43%; body weight versus vehicle-treated controls ([2]; after 28 days of drug treatment, rats): lower than those of the vehicle-treated controls; body weight ([2]; chronic administration, animals made obese by cafeteria diet (high-fat diet, chocolate, ground peanuts)): significantly decreased body weight; effect on plasma lipids (triacylglycerol and glycerol) ([2]; following chronic administration, seems independent of weight loss): positive effect on plasma lipids; body weight during treatment period ([3]; 10 mg/kg i.p. once daily, days 9-22, FIG. 1): significant action during the treatment period; body weight in post-treatment period ([3]; after 10 mg/kg i.p. once daily, days 23-36, FIG. 1): relatively fast recovery of weight

Q: With Cl.O=C(NN1CCCCC1)C1=NN(c2ccc(Cl)cc2Cl)[C@H](c2ccc(Cl)cc2)C1 [A-Hydrochloride, Hydrochloride salt of (S)-N-piperidinyl-5-(4-chlorophenyl)-1-(2,4-dichlorophenyl)-4,5-dihydro-1H-pyrazole-3-carboxamide] as the compound, how does the “Antagonism [%]” value [1] read?
A: −7%
